We go through 2 compounds from ChEMBL document CHEMBL6109139, “Rational Design of the First Dual Agonist at Trace Amine-Associated Receptor 1 and 5-HT2C Receptors Based on Binding Pocket Similarity for the Treatment of Schizophrenia and Alzheimer's Disease-Related Psychosis” (J Med Chem, 2025).

Each structure is given as a SMILES string. pEC50, pIC50: −log10 of the molar value. The source made the active and inactive calls. No cut-off for these calls is given here.

Data set [1] has as its system Mus musculus. The data set is described as follows: Antidepressant activity in chronic social defeat stress induced depressive C57BL/6J mouse model assessed as increase in time of interaction zone at 10 mg/kg, IG measured after 15 mins by open field test. Format: functional, organism-based.
The target of data set [2] is Cytochrome P450 2B6 (Homo sapiens, UniProt P20813). The experiment in a line: Inhibition of CYP2B6 in human liver microsomes in presence of NADPH by LC-MS/MS analysis. Format: ADME, Microsome. For orientation: Microsomes from liver hold many membrane-bound enzymes, among them those of drug oxidation.
A short description of data set [3]: Metabolic stability in rat liver microsomes assessed as intrinsic clearance at 1 uM incubated for 60 mins by LC-MS/MS analysis. Format: ADME, Microsome. The conditions noted are these: read-out: CLH.
Data set [4] in a line: Apparent permeability across apical to basolateral side in human Caco-2 cells at 2 uM by LC-MS/MS analysis. Format: ADME, cell-based.
A short description of data set [5]: Efflux ratio of apparent permeability across apical to basolateral side in human Caco-2 cells at 2 uM by LC-MS/MS analysis. Format: ADME, cell-based.
A short description of data set [6]: Metabolic stability in human liver microsomes assessed as intrinsic clearance at 1 uM incubated for 60 mins by LC-MS/MS analysis. The following applies: read-out: CLH. Format: ADME, Microsome.
The nature of data set [7]: Plasma protein binding in dog assessed as unbound fraction by LC-MS/MS analysis. Format: ADME, cell-free, Canis lupus familiaris.
The target in data set [8] is Cytochrome P450 2C9 (Homo sapiens, UniProt P11712). The experiment in a line: Inhibition of CYP2C9 in human liver microsomes in presence of NADPH by LC-MS/MS analysis. Format: ADME, Microsome.
Data set [9] in a line: Plasma protein binding in rat assessed as unbound fraction by LC-MS/MS analysis. Format: ADME, cell-free.
Data set [10] concerns the target T1, 5-hydroxytryptamine receptor 2C (Homo sapiens, UniProt P28335).
T1 sequence (P28335 whole entry): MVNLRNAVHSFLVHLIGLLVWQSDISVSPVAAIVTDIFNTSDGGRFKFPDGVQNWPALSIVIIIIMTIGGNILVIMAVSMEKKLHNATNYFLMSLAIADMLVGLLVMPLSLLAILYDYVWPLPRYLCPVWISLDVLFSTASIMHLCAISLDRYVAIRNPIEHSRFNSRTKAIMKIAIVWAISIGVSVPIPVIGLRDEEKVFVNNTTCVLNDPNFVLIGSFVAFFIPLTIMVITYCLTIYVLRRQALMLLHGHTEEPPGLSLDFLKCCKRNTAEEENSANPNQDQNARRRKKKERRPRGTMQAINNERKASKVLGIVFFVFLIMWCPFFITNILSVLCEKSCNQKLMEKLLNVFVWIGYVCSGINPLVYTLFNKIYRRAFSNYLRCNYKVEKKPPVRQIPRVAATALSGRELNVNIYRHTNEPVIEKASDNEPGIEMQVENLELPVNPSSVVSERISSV
The experiment in a line: Partial agonist activity at recombinant human 5-HT2CR expressed in HEK293 cells incubated for 2 hrs by FLIPR calcium assay. Format: functional, cell-based.

Data set [11] can be described thus: Inhibition of CYP2D6 in human liver microsomes in presence of NADPH by LC-MS/MS analysis. Format: ADME, Microsome.
Data set [12] in a line: Drug uptake in male Sprague-Dawley rat brain assessed as parent compound remaining measured after 6 hrs. Format: ADME, tissue-based. The conditions noted are these: read-out: Activity.
For data set [13], the target named is Cytochrome P450 1A2 (Homo sapiens, UniProt P05177). The data set is described as follows: Inhibition of CYP1A2 in human liver microsomes in presence of NADPH by LC-MS/MS analysis. Format: ADME, Microsome.
Data set [14] deals with Cytochrome P450 3A4 (Homo sapiens, UniProt P08684). The experiment in a line: Inhibition of CYP3A4 in human liver microsomes in presence of NADPH by LC-MS/MS analysis. Format: ADME, Microsome.
In data set [15] the target is Cytochrome P450 2C8 (Homo sapiens, UniProt P10632). The data set is described as follows: Inhibition of CYP2C8 in human liver microsomes in presence of NADPH by LC-MS/MS analysis. Format: ADME, Microsome.
The target of data set [16] is Cytochrome P450 2C19 (Homo sapiens, UniProt P33261). The data set is described as follows: Inhibition of CYP2C19 in human liver microsomes in presence of NADPH by LC-MS/MS analysis. Format: ADME, Microsome.
A short description of data set [17]: Plasma protein binding in human assessed as unbound fraction by LC-MS/MS analysis. Format: ADME, cell-free.

Cytochrome P450 1A2, sequence (P05177 whole entry): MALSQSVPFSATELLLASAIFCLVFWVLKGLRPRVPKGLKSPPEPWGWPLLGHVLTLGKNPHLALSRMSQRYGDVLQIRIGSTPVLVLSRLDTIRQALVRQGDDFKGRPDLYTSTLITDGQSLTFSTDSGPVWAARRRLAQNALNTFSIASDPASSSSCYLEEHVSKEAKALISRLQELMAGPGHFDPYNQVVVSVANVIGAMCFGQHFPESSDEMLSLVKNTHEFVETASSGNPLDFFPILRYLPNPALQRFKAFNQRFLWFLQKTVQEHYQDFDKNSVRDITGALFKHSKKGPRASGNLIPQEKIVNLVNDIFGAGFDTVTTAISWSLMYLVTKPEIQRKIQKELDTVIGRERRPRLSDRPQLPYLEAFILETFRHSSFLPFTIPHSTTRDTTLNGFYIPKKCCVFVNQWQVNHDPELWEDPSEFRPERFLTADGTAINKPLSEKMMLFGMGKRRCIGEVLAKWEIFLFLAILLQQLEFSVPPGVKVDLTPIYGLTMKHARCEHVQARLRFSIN
Cytochrome P450 2C8, sequence (P10632 whole entry): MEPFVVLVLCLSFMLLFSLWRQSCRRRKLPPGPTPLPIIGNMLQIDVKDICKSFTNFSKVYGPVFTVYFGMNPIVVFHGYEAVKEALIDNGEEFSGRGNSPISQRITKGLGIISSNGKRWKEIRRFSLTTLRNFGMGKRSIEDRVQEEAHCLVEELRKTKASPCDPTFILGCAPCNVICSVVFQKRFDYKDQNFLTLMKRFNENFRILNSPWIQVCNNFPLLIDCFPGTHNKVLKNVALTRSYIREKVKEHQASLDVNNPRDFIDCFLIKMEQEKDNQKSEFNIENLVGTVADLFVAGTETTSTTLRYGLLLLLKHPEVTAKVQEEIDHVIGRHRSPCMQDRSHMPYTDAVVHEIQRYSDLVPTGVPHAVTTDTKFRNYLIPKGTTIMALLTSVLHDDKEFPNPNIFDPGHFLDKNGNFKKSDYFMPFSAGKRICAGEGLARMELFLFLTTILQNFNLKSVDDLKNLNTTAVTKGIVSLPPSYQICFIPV
Cytochrome P450 2C19, sequence (P33261 whole entry): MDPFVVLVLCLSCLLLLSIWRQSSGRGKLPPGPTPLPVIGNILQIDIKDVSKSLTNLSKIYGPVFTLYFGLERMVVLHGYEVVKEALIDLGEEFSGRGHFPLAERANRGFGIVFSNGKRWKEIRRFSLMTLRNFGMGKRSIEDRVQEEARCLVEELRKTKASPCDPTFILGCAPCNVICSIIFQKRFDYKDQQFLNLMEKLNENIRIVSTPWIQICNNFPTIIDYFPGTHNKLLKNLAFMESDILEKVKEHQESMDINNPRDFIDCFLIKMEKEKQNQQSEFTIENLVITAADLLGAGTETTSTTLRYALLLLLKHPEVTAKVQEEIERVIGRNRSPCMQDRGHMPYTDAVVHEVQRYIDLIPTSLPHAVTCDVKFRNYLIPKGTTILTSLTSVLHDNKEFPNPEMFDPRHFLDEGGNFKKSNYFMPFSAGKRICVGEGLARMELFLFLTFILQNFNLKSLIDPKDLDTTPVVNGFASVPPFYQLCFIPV
Cytochrome P450 2C9, sequence (P11712 whole entry): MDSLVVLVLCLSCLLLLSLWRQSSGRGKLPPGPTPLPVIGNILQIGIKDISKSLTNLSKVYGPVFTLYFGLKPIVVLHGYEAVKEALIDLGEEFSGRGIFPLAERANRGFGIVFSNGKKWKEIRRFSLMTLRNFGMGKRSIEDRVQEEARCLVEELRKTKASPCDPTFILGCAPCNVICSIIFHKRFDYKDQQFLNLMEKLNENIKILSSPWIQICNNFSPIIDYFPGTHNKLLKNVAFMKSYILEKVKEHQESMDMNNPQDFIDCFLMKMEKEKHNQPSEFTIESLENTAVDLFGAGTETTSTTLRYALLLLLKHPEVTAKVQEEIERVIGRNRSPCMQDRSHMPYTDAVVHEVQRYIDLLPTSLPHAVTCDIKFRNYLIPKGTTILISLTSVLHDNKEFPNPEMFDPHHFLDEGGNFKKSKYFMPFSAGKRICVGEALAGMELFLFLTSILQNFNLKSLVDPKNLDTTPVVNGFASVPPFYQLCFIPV
Cytochrome P450 3A4, sequence (P08684 whole entry): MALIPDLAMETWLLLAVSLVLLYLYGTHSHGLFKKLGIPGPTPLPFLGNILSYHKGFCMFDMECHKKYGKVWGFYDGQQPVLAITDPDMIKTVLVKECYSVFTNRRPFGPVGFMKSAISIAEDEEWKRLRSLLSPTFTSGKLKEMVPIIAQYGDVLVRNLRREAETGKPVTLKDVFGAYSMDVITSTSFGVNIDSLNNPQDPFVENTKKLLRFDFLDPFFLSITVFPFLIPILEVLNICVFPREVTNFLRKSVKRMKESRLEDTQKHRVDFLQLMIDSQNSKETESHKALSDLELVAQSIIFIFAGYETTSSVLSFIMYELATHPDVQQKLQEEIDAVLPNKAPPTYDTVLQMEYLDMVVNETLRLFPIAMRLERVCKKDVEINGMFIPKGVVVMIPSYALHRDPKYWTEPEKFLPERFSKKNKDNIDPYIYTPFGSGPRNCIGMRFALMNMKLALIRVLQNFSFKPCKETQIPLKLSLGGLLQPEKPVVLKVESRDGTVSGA
Cytochrome P450 2B6, sequence (P20813 whole entry): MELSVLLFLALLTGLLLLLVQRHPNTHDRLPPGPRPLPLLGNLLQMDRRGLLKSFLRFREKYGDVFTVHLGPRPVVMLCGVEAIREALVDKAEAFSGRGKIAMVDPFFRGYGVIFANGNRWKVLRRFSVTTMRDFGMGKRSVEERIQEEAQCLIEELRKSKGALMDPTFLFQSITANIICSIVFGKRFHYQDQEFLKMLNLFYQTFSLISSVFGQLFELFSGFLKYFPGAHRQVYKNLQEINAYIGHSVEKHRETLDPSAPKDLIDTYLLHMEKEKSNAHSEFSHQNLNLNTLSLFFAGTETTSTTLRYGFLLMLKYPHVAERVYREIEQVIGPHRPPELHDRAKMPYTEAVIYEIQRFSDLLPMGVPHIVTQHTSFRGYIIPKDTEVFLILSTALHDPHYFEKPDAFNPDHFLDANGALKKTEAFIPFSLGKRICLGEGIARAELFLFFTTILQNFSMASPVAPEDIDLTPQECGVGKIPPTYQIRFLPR

Consider `Cc1cc2c(s1)Nc1ccccc1N=C2N1CCN(C)CC1`, for which the outcome in data set [1] was Active.

`COc1ccsc1C1CNCCO1` (stereo in doubt; 25a): the pIC50 in data set [2], in [8], in [11], in data set [13], in [14] and in [15] was less than 4.30 in each case. Further, the pIC50 (in general, the IC50 on a negative log10 scale, so that one unit is a factor of ten) in data set [16] is less than 4.30. Moreover, the CLint scaled at 1 µM in data set [3] was less than 13.5 mL/min/kg; in [6], less than 6.8 mL/min/kg. Besides, the Papp A→B (usually the apparent permeability from the apical to the basolateral side of a cell layer) at 2 µM in [4] worked out at 46 ×10⁻⁶ cm/s. Besides, the efflux ratio – broadly, the permeability from basolateral to apical divided by that in the opposite direction, in the common usage – at 2 µM in data set [5] came out at 0.6. The fraction unbound – broadly, free concentration divided by total concentration – is 0.73 in [7], 0.872 in [9] and 0.747 in data set [17]. In addition, the pEC50 – broadly, the EC50 on a negative log10 scale, so that one unit is a factor of ten – in [10] was 5.36. The remaining at 6 h in data set [12] is less than 20%.
